Measurements as given in publication PMC8536830 (Current Biology, 2021).
pEC50: −log10 of the molar value.

Columns and labels:
[1] = molecular target: T1, LGC-50:MOD-1(363-397) (Caenorhabditis elegans, UniProt P41849); assay: Two-electrode voltage clamp, 5-HT evoked dose response, LGC-50:MOD-1(363-397) chimera; assay type: cell-based, C. elegans; details: Xenopus oocytes, TEVC
T1 sequence (P41849 with tags, fused parts or gaps): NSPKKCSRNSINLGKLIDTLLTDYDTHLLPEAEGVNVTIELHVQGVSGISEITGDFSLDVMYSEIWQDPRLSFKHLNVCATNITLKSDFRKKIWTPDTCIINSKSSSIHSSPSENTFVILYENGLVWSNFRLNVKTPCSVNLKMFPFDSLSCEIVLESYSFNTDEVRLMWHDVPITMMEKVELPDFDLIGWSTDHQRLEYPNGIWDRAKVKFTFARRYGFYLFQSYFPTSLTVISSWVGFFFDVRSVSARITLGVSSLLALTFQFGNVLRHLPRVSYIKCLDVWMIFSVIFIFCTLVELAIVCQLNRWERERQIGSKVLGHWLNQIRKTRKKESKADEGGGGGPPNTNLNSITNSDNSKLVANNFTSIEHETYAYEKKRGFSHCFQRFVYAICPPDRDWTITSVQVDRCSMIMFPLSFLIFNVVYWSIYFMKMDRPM
T1 sequence (Q9GQ00 363-397 partner): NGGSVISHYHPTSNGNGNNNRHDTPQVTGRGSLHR
Procedure: (§1) Defolliculated Xenopus laevis oocytes were obtained from EcoCyte Bioscience (Dortmund, Germany) and maintained in ND96 (in mM: 96 NaCl, 1 MgCl2, 5 HEPES, 1.8 CaCl2, 2 KCl) solution at 16°C for 3-5 days.
5'-capped cRNA was synthesized in vitro using the T3 mMessage mMachine transcription kit according to manufacturer’s protocol (Thermo Fischer Scientific, CA, USA). RNA was then purified using the GeneJET RNA purification kit (Thermo Fischer Scientific, CA, USA) prior to cRNA injection. Defolliculated Xenopus oocytes were placed individually into 96 well plates and injected with 50nL of 500ng/μL RNA using the Roboinject system (Multi Channel Systems GmbH, Reutlingen, Germany). […]
(§2) Two-electrode voltage clamp recordings were carried out using the Robocyte2 recording system or a manual TEVC set up, using an OC-725D amplifier (Multi Channel Systems, Reutlingen, Germany) and paired with a custom-made recording chamber and agar bridges from reference and bath electrodes. […] Data was recorded using WinWCP or RoboCyte2 control software, manual data was filtered at 10 Hz.
Dose response curves were calculated from the peak current during a 10 s agonist stimulation in ND96 solution, with a 60 s ND96 wash in between doses. […] Normalized dose response data was fitted to a nonlinear curve using a four parameters variable slope and the EC50 and Hill slope was calculated. […]

[2] = molecular target: T2, LGC-50 (Caenorhabditis elegans, UniProt P41849); assay: Two-electrode voltage clamp, agonist-evoked currents in Xenopus oocytes expressing LGC-50; assay type: cell-based, C. elegans
T2 construct: lgc-50 ORF F […]; expressed in transfected cells; host or cells: Xenopus laevis oocytes injected with cRNA (plasmid pJML002, KSM: lgc-50 cDNA)
T2 sequence (P41849 20-491): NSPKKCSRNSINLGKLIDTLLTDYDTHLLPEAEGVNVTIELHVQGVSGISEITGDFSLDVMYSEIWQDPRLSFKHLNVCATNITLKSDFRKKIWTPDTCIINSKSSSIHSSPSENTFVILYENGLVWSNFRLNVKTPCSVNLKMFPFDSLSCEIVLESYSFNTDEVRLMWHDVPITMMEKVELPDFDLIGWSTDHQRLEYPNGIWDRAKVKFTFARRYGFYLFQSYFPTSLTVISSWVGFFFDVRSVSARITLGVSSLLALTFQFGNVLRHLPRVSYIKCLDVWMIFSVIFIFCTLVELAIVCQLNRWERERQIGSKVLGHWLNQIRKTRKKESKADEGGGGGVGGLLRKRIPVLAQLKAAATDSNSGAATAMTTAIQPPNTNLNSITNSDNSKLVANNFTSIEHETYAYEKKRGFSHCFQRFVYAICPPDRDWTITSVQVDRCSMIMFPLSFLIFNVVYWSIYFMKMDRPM
From the text: We aimed to deorphanize C. elegans LGICs without known ligands, focusing on 5 genes in the putative monoamine-gated group: lgc-50; lgc-51; lgc-52; lgc-54; and lgc-56 (previously named ggr-3). Using heterologous overexpression in Xenopus oocytes and two-electrode voltage clamp recordings, we measured channel activity evoked by application of 11 monoamines and other neurotransmitters.
as §1
5'-capped cRNA was synthesized in vitro using the T3 mMessage mMachine transcription kit according to manufacturer’s protocol (Thermo Fischer Scientific, CA, USA). RNA was then purified using the GeneJET RNA purification kit (Thermo Fischer Scientific, CA, USA) prior to cRNA injection. […]
as §2
Dose response curves were calculated from the peak current during a 10 s agonist stimulation in ND96 solution, with a 60 s ND96 wash in between doses. […] Normalized dose response data was fitted to a nonlinear curve using a four parameters variable slope and the EC50 and Hill slope was calculated. […] Ion selectivity was determined using a voltage ramp protocol of 20mV/s ranging from −80mV to +60mV in the presence or absence of the primary agonist in three different solutions: ND96, NMDG (Na^+ free) and Na Gluconate (low Cl^-) solutions. […] Antagonist dose response curves were calculated from the peak current during a 10 s agonist + antagonist stimulation in ND96 solution, with the agonist concentration remaining constant. […] Kinetic measurements were calculated from a 60 s agonist perfusion. […]

For NCCc1c[nH]c2ccc(O)cc12 [5-HT, serotonin], the pEC50 [1] was 6.01, the pEC50 ([2]; Xenopus oocytes, TEVC, current normalized to Imax, Hill equation with variable slope, read-out: EC50, agonist-evoked dose response, LGC-50) was 6.03 and the “Channel gating in ligand screen, LGC-50” value ([2]; ligands screened at 100 μM, oocytes clamped at −60 mV) was “gated”.
